Tests used:
[1] = system: carbon tetrachloride (CT) mouse model; assay: Serum ALT in the carbon tetrachloride (CT) mouse model of liver damage; assay type: in vivo; details: Ex 6; TM from week 5; sacrifice week 12; p<0.0008; protection only partial
Description: (§1) The carbon tetrachloride (CT) mouse model produces much more liver fibrosis (cirrhosis) than the Con A model. In this model carbon tetrachloride is injected intraperitoneally twice weekly, and after 12 weeks, a well-established cirrhosis should be present. This can be evaluated histologically, and can be quantitated by measuring liver hydroxyproline, a major amino acid in collagen. The TM was started in TM treated animals at the beginning of week 5 and the animals were sacrificed at week 12.
There were 4 animals in the CT group, 4 in the CT/TM group, 2 in the olive oil/TM group, and 1 in the TM group. Since there were so few animals in the last two groups, and since their data were generally similar, they were combined.

[2] = system: TGFβ; assay: Lung TGFβ levels (ELISA or PAI-1 promoter-luciferase cell line), bleomycin model; assay type: in vivo, mouse
Description: Lung TGFβ levels were measured using either ELISA with a kit from R&D Systems (Minneapolis, Minn.), or using a cell line stably transfected with a plasminogen activator inhibitor-1 (PAI-1) promoter-luciferase construct (M Abe et al., Analytical Biochemistry, 216:276-284 [1994]). Briefly for the latter assay, mink lung epithelial cells transfected with the PAI-1 promoter construct were incubated with the indicated activated (by pre-acidification) test samples diluted (1:2 dilution) in fresh media. After a 24 hr incubation, the cells were lysed with reporter lysis buffer (Promega, Madison, Wis.). Luciferase activity was measured by the luciferase assay system (Promega) and read using a Reporter microplate luminometer (Turner Designs, Sunnyvale, Calif.). Human TGFβ1 (R&D Systems) was used as a standard.

[3] = system: carbon tetrachloride (CT) mouse model; assay: Liver hydroxyproline and histology in the CT mouse model; assay type: in vivo; details: Ex 6
Description: as §1

[4] = system: IL-1β; assay: Plasma IL-1β in Con A treated mice; assay type: in vivo, mouse; details: Ex 5 Exp 3; p=0.15
Source text: In a third experiment, two Con A injections one week apart were given to 10 mice. Five of the mice had begun TM treatment 5 days prior to the first injection. All the mice were sacrificed 2 hrs after the last Con A injection.

[5] = system: Aβ40 and Aβ42; assay: Aβ40 and Aβ42 ELISA in brain homogenates of Tg2576 mice; assay type: in vivo; details: Ex 8, TM 0.7 mg/mouse daily from 9 to 15 months of age
Description: A study is carried out in an mouse model of Alzheimer's disease. The mouse model is the Tg2576 mouse model, as described above in the Description of the Invention and in further detail in Gau et al., 2002 (J Gau et al., Amer. J. Pathology, 160(2):731-738 [2002]; J Q Trojanowski, Amer. J. Pathology, 160(2):409-411 [2002]). These mice begin developing amyloid plaques at about 9 months of age and plaques are well developed by 15 months. The transgenic mice also develop progressive age-dependent cognitive and behavioral abnormalities described in the background.
Forty female Tg2576 mice, aged 3 months, are purchased from Tagonic Inc, and grown until 9 months of age, at which time they are divided into two groups of 20. One group begins treatment with TM at 9 months of age, and are treated until sacrifice at age 15 months. […] Cp is determined by an oxidase method. […] The weight of the mice is determined weekly. […]
After 6 months of treatment with water or TM, all mice in both groups are sacrificed painlessly, and the brains removed and divided sagitally. […] Analysis of amyloid plaque load in mouse brains is determined by light-microscopic semi-quantitative analysis of brain sections. Subtle effects of treatment are measured by a more rigorous quantitative analysis of amyloid plaques in brain sections to detect a significant difference. […]

`[SH-].[SH-].[S]=[Mo]=[S]` [TM, tetrathiomolybdate] was tested, and the “serum ALT, CT/TM group mean vs CT group” value [1] was “significantly lower”, the “lung TGFβ protein level (ELISA), bleomycin-induced increase” value ([2]; Ex 2 Exp 1, bleomycin/TM, day 7, p=0.06) was “inhibited this increase” and the “lung TGFβ protein levels (PAI-1 promoter-luciferase), bleomycin-induced increase” value ([2]; Ex 2 Exp 2, TM from day 5, day 21, not statistically significant) was “completely inhibited this increase”. For the same molecule, the “lung TGFβ protein levels (ELISA)” value ([2]; Ex 2 Exp 3, TM started 5 days prior to bleomycin (Bleo/TM-5), p=0.04) was “significantly inhibited”, the liver histology ([3]; CT/TM treated liver) was “essentially normal” and the “liver fibrosis as evaluated by hydroxyproline” value ([3]; CT/TM, after week 12) was “blocks all fibrosis”. The “plasma levels of IL-1β” value [4] was “close to being significantly lower” and the “mean reduction in Aβ40 and Aβ42 levels in brain homogenates” value [5] was “up to 50%”.

Source: patent US7416741B2, “Copper lowering treatment of inflammatory and fibrotic diseases” (The Regents of the University of Michigan, priority 2002, dated 2008)
